Measured values: patent US20220079935A1, “COMPOUNDS AND TREATMENTS THAT ENHANCE ENTERIC NERVOUS SYSTEM FUNCTION” (The Johns Hopkins University, priority 2019, published 2022)
Entries after “also recorded” stand apart in the source; their conditions may differ.

Experiments:
TrkB = molecular target: T1, TrkB (Mus musculus, UniProt P15209, F616A); experiment: TrkB inhibition in NTrk2 tmlDdg/J mutant mice; type: in vivo; details: 1NMPP1 25 μM injected in NTrk2 tmlDdg/J mutant mice; preliminary
T1 construct: from tissue; host or cells: NTrk2 tm1Ddg/J knock-in mutant mice (in vivo; intestine)
T1 sequence (P15209 32-821 F616A): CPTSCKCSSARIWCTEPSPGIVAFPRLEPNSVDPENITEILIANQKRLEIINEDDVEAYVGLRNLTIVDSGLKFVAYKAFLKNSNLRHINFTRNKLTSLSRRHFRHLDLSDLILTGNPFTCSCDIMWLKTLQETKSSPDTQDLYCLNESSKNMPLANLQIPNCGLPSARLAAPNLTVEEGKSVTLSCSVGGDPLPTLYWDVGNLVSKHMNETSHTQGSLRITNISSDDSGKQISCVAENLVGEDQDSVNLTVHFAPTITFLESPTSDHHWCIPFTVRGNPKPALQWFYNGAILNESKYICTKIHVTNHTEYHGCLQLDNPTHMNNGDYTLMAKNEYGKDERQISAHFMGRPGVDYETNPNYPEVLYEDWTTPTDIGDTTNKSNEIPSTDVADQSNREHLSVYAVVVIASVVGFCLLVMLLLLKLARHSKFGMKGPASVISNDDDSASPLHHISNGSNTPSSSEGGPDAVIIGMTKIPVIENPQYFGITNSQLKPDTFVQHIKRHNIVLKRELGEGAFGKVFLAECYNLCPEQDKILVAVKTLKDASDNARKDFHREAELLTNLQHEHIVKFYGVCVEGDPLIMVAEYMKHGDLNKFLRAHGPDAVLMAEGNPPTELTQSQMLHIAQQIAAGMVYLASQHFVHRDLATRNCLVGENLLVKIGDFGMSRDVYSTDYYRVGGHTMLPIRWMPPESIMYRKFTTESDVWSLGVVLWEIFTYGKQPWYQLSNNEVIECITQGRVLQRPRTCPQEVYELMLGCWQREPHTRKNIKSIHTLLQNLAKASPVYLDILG

[1] = system: enteric glial cells (EGC/PK060399egfr, ATCC CRL-2690); experiment: BDNF mRNA expression by enteric glial cells (qPCR); type: cell-based, rat; details: 10 μM and 20 μM J11
Method: FIG. 17 depicts a time response curve showing the BDNF mRNA expression by enteric glial cells stimulated with 10 μM and 20 μM J11. The enteric glial cells (EGC/PK060399egfr, ATCC® CRL-2690™) were treated with 10 μM and 20 μM J11, and the enteric glial cells were harvested at 2, 6, 24 and 48 hours after treatment.
The enteric glial cells (EGC/PK060399egfr, ATCC® CRL-2690™) were treated with 10 μM and 20 μM J11, and the enteric glial cells were harvested at 2, 6, 24 and 48 hours after treatment. Total RNA was isolated using the RNeasy mini kit following the manufacturer's protocol. Complementary DNA was synthesized from 0.5 μg RNA using M-MLV reverse transcriptase. The qPCR analysis was performed with the Bio-Rad CFX96 Real-Time System (Biorad, Hercules, Calif.). The relative BDNF mRNA expression was normalized against the expression of housekeeping gene RPLO.

[2] = system: intestine of wild type mice; experiment: BDNF release in the intestine after oral administration; type: in vivo; details: oral administration 20 mg/kg, wild type mice (FIG. 6C)
[3] = system: premature human intestine obtained after surgery for NEC; experiment: Human NEC intestine treated ex vivo with LPS; type: cell-based
Method: (§1) FIGS. 5A-5K. BDNF restrains TLR4 signaling in the intestinal epithelium. 5A) enterocytes. 5B) In wild-type mice, BDNF (1 μg/kg) LPS (5 mg/kg) injection for 6 hrs. 5C) qRT-PCR of human ileum freshly harvested from patient with NEC treated with LPS (25 μg/kg) for 6 hr. 5D-H) H&E images. 5I) BDNF ELISA. 5J-K) TNFα and NEC severity. *p<0.05 by ANOVA; 5-10 mice per experiment.
(§2) Fifth, wild-type mice with NEC show reduced levels of BDNF in the intestinal mucosa (FIG. 5H-I), consistent with the reduction in glia.
(§3) The inventors next embarked on a strategy to identify novel therapeutic agents for NEC based upon their ability to enhance glial function and thus reduce TLR4 signaling and NEC. To do so, several libraries of FDA approved compounds were screened against the rat enteric glia cell line EGC/PK060399 (ATCC® CRL-2690™) for their ability to induce BDNF release, then the hits were validated by their ability to reduce NEC in mice. The lead hit, shown in FIG. 6A, is a C13H11NO5 compound with MW 261.23Da, herein named “J11”.

NEC in mice = experiment: Experimental NEC model in mice; type: in vivo
Method: In the inventors' NEC model, 7d old mice are gavaged with a combination of Similac Advance infant formula (Abbott Nutrition):Esbilac canine milk replacer (PetAb) in a 2:1 ratio at 50 μl/g every 3 hours, and subjected to 10 minutes of hypoxia (5% O2 95% N2 in a Billups-Rothenberg chamber) twice daily for four days, and then orally gavaged dysbiotic bacteria (1×10^5 cfu/ml) obtained from the stool of a patient with severe NEC (see our recent JCI paper for more model details^7). This protocol induces patchy intestinal necrosis and mucosal disruption which mimics human NEC in wild-type mice, but not in either TLR4^ΔIEC or TLR4^−/− littermates.

TLR4 signaling [4] = experiment: LPS-mediated TLR4 signaling in the intestine of mice; type: in vivo
Method: as §1, §2, §3
(§4) The inventors sought to determine how BDNF inhibits TLR4 and thus attenuates NEC. BDNF is known to signal principally via its receptor, namely tropomyosin-related kinase B (TrkB), which the inventors now show to be present in the intestinal epithelium (FIG. 7). The inventors have now knocked down TrkB in IEC-6 enterocytes (FIG. 7A) using lentiviral delivery of TrkB shRNA.

[5] = system: rat enteric glia cell line EGC/PK060399 (ATCC CRL-2690); experiment: BDNF release from cultured enteric glia cell line (BDNF ELISA); type: cell-based
Method: FIG. 16 is a time response curve showing the BDNF secretion by enteric glial cells stimulated with 10 μM J11. The enteric glial cells (EGC/PK060399egfr, ATCC® CRL-2690™) were treated with 10 μM J11, and the conditional medium were harvested at 2, 6, 24 and 48 hours after treatment. The BDNF secretion was quantified using BDNF ELISA kit following the manufacturer's protocol.
as §3
A dose-response curve was established for oxolinic acid (J11) in inducing BDNF release in the enteric glia cell line EGC/PK060399, and will be used evaluate a safety profile based upon its mean effective dose in mice. […] The BDNF secretion was quantified using BDNF ELISA kit following the manufacturer's protocol. The amount of BDNF was time dependent with the greatest secretion after 48 hours of exposure.

TLR4 signaling [6] = experiment: LPS-induced cytokine expression in cultured enterocytes or enteroids; type: cell-based, mice; details: BDNF 1 μg/ml
Text: as §2, §4

`CC(C)(C)n1nc(Cc2cccc3ccccc23)c2c(N)ncnc21` [1NMPP1] was tested, and the TrkB inhibition (TrkB) was “preliminarily achieved TrkB inhibition”.

With `CCn1cc(C(=O)O)c(=O)c2cc3c(cc21)OCO3` [J11, oxolinic acid] the “time of maximal BDNF mRNA expression” value ([1]; harvested at 2, 6, 24 and 48 hours) was 24 h, the “BDNF mRNA expression” value ([1]; normalized to RPLO (FIG. 17)) was “stimulated” and the “BDNF release in the intestine” value [2] was “induced BDNF release”. For the same molecule, the “TLR4 signaling / inflammation in human NEC intestine” value ([3]; J11 10 μM, LPS 25 μg/ml, ex vivo) was “reduced TLR4 signaling; also recorded: reduces TLR4 signaling in human tissue; also recorded: reduces inflammation in human NEC tissue ex vivo”, the “BDNF release in human NEC intestine” value ([3]; J11 10 μM, ex vivo) was “significantly induced BDNF release” and the NEC severity (NEC in mice; administered orally 20 mg/kg/day to 7d old mice, 20 mg/kg/day) was “significantly reduced NEC severity; also recorded: prevents NEC in mice”. The “LPS-mediated TLR4 signaling in the intestine” value (TLR4 signaling [4]; LPS 5 mg/kg, wild type mice (FIG. 6D)) was “inhibited LPS (5 mg/kg)-mediated TLR4 signaling”, the “time of greatest BDNF secretion” value ([5]; 10 μM J11, conditional medium harvested at 2, 6, 24 and 48 hours, BDNF ELISA (FIG. 16)) was 48 h and the “BDNF release from enteric glia” value ([5]; cultured enteric glia (FIG. 6B)) was “induced BDNF release”.

B1: BDNF: brain derived neurotrophic factor, enteric glia-derived peptide signalling through TrkB (protein, UniProt P23560 19-247, looked up)
Neurotrophic factor BDNF …: APMKEANIRGQGGLAYPGVRTHGTLESVNGPKAGSRGLTSLADTFEHVIEELLDEDQKVRPNEENNKDADLYTSRVMLSSQVPLEPPLLFLLEEYKNYLDAANMSMRVRRHSDPARRGELSVCDSISEWVTAADKKTAVDMSGGTVTVLEKVPVSKGQLKQYFYETKCNPMGYTKEGCRGIDKRHWNSQCRTTQSYVRALTMDSKKRIGWRFIRIDTSCVCTLTIKRGR
For B1, the “protection from LPS in ileum from NEC patients” value ([3]; ileum from NEC patients treated with BDNF (FIG. 5C)) was “protection was seen”, the TLR4-induced cytokine expression (TLR4 signaling [6]; LPS 50 μg/ml, cultured enterocytes or enteroids from wild-type mice (FIG. 5A)) was “reduced TLR4 signaling” and the “LPS induced IL-6 expression after TrkB knockdown” value (TLR4 signaling [6]; IEC-6 cells with TrkB shRNA, LPS 50 μg/ml (FIG. 7A)) was “knockdown of TrkB prevented BDNF (1 μg/ml)-mediated protection; also recorded: prevents BDNF protection of LPS TLR4-induced cytokine expression”. The “NEC in mice lacking TrkB in the intestinal epithelium” value (NEC in mice; TrkB-lacking intestinal epithelium, BDNF administration) was “not protected by BDNF administration”, the “NEC severity in the glial-KO mouse model” value (NEC in mice; glial-KO mice, BDNF 1 μg/kg (FIGS. 5H-K)) was “significantly reversed the severe NEC; also recorded: reversed by the administration of BDNF” and the NEC development (NEC in mice; oral BDNF 1 μg/kg on each day of the model, histology and inflammatory cytokines) was “significantly protected against NEC development”. For the same molecule, the “TLR4-mediated expression of pro-inflammatory cytokines in the intestinal mucosa” value (TLR4 signaling [4]; BDNF 1 μg/kg injection, wild type mice, 6h after LPS injection (FIG. 5B)) was “significantly reduced TLR4-mediated expression of the pro-inflammatory cytokines”, the “LPS-mediated TNF induction in mice deficient in TrkB” value (TLR4 signaling [4]; newborn mice, TrkB shRNA by oral gavage, BDNF 1 μg/kg (FIG. 7B)) was “no protection of LPS-mediated TNF induction by BDNF” and the “intestinal TNFα in glia KO mouse” value (TLR4 signaling [4]; qRT-PCR, glia KO mouse (FIG. 3B)) was “reversed by BDNF”.
